Columns and labels:
rats = assay: Forced swimming test in rats; type: in vivo, Sprague Dawley (SD) rats; settings: oral, 40 mg/kg
Description: The forced swimming test (FST) was conducted as described earlier. ^30 Eighty naive rats were randomized into eight treatment groups (n = 9‐12/group). All rats received a single drug administration (p.o.). The procedure consisted of two sessions, to be specific, a pre‐test session and a test session. A cylindrical container (diameter, 20 cm; height, 40 cm; including 30 cm of water and kept at 25℃) was used. During the pre‐test phase, rats were required to perform forced swimming for 15 min. The test session was performed 24 h later, put the rats in the same cylindrical container for 5 min and immobility duration over 5 min recorded. […] Rats were considered immobile when they entered a floating posture, specifically, immobile, passive, and with their heads above water.

5‐HT2C receptor = biological target: T1, 5‐HT2C receptor (Rattus norvegicus, UniProt P08909); assay: 5‐HT2C receptor binding assay ([3H]‐LSD competition); settings: mean ± SEM, three independent experiments
T1 construct: 5‐HT2C receptor membrane protein was extracted from rat hippocampus and a stably transfected HEK293 cell line; from tissue; host or cells: rat hippocampus
T1 sequence (P08909 33-460): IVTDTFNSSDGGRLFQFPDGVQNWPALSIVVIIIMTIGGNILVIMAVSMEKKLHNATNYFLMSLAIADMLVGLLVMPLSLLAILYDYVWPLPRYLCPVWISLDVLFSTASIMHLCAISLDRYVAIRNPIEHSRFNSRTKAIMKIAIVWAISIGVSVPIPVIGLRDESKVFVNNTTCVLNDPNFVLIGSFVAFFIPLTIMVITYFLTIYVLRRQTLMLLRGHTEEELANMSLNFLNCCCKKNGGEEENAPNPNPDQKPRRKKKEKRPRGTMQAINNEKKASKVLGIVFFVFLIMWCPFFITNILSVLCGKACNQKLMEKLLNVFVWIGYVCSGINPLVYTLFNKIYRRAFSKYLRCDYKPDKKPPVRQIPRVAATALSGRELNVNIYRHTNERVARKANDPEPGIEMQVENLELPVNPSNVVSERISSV
Description: Hippocampal membrane preparations were obtained using previously described methods. ^24 , ^25 , ^26 Briefly, rats were decapitated and their brains were rapidly removed. Next, the hippocampus was dissected and subsequently homogenized in 40 volumes of ice‐cold buffer (50 mM Tris‐HCl Buffer, pH 7.4) and then centrifuged at 40,000 × g at 4°C for 10 min. The particles were re‐suspended and centrifuged again. In order to remove endogenous monoamines, the final suspension was incubated at 37°C for 20 min and then centrifuged as usual. The final pellets were frozen at −80°C at once for up to 1 week.
Human MT1/MT2 receptor membrane proteins were obtained from Perkin‐Elmer (ES‐620 [MT1] and ES‐621 [MT2]). The stably transfected 5‐HT2C receptor HEK293 cell line was prepared using a nucleus‐cytoplasm‐membrane preparation kit (Applagin Technologies Inc.). Briefly, cells were harvested at 4°C, 110 00 × g and centrifugation for 5 min. Homogenize pellets in the assay buffer (50 mM Tris‐HCl buffer containing 120 mM NaCl and 5 mM KCl, pH 7.4) and then centrifuged twice at 4°C, 36,000 × g for 15 min. […]
Receptor membrane protein, 5‐HT2C (50 μl), was added to all the tubes. Non‐specific binding was determined by the presence of unlabeled 10 μM 5‐HT and pre‐reacted for 30 min. […] Finally, 1 ml of scintillation fluid was added and the radioactive intensity measured by liquid scintillation counting.

MT1 receptor = biological target: T2, MT1 receptor (Homo sapiens, UniProt P48039); assay: [35S]‐GTPγS binding assay, MT1; type: biochemical; settings: [35S]‐GTPγS binding; read-out: maximal increase over basal binding (% Emax), MT1 receptor
T2 construct: purchased Perkin‐Elmer ES‐620
T2 sequence (P48039 whole entry): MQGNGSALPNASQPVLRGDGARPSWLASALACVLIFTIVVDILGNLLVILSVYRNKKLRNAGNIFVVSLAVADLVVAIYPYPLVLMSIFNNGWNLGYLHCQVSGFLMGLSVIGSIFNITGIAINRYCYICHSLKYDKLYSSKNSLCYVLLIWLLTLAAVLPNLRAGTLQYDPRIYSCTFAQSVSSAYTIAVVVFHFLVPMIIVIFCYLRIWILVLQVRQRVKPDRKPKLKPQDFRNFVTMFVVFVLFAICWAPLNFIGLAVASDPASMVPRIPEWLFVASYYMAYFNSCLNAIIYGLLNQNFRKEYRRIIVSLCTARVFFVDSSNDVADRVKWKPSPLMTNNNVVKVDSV
Description: (§1) This experiment was mentioned earlier. ^27 In short, HEK293 cell membrane stably expressing human 5‐HT2C receptors or rat hippocampal tissue membrane or MT1/MT2 receptors was re‐suspended in buffer (50 mmol/L Tris, 100 mmol/L NaCl, 5 mmol/L MgCl2·6H2O, 0.1 mmol/L EDTA‐Na2·6H2O, 0.2 mmol/L EGTA, pH 7.4) and incubated with the test compound (100 μM GDP, 0.2 nM [^35S]‐GTP, or [^3H]PIP) for 60 min at 28℃. At the end of the experiment, Whatman GF/C filters pre‐soaked with distilled water were used for rapid filtration followed by washing with 5 ml of ice‐cold Tris buffer. Determination of non‐specific binding in the presence of GTPγS and radioactivity was measured by liquid scintillation counting. Calculation of the concentration produces a half‐maximal effect (EC50) and the maximal increase above the baseline value.

mice [1] = assay: Tail suspension test in mice; type: in vivo, ICR mice; settings: oral, 10, 20 or 40 mg/kg, vs. vehicle
Description: The tail suspension test (TST) was conducted as described earlier. ^28 , ^29 Eighty naive mice were randomly divided into eight treatment groups (n = 10/group). All mice received a single dose of the drug (p.o.). After 60 min of gavage administration, mice were suspended from the top of the apparatus (25 × 25 × 35 cm) using tape about 1 cm from the tail tip. The duration of immobility was recorded in the last 4 min for a total of 6 min. When mice are passively suspended immobile, they are judged to be stationary.

MT2 receptor = biological target: T3, MT2 receptor (Homo sapiens, UniProt P49286); assay: [35S]‐GTPγS binding assay, MT2; type: biochemical; settings: [35S]‐GTPγS binding; read-out: maximal increase over basal binding (% Emax), MT2 receptor
T3 construct: purchased Perkin‐Elmer ES‐621
T3 sequence (P49286 1-362): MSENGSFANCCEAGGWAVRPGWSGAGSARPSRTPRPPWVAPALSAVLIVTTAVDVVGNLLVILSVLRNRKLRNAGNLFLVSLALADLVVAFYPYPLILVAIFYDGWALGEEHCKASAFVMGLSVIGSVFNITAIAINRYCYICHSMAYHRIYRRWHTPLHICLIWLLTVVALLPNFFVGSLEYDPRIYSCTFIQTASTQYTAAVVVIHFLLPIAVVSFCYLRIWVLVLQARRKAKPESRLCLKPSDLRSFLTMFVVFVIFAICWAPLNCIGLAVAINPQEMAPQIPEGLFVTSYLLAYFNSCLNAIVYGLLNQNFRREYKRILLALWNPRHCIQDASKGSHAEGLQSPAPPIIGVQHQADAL
Description: as §1

CUS rats = assay: Novelty‐suppressed feeding test in the CUS model; type: in vivo; settings: chronic, 10 mg/kg
Description: In order to further examine the antidepressant effects of GW117, chronic unpredictable stress (CUS) model was utilized; the methods were as described before. ^29 , ^31 After 1 week of training, rats underwent sucrose training of 48 h. After training, a sucrose baseline test was performed. […] Gastric gavage was given 1 h before the stress (08:00–09:00). Except for the non‐stressed group, all rats were stimulated by a series of stressors. stress methods included the following: fast on food and water (24 h), moisture cage (150 g sawdust bedding in 200 ml water), overnight illumination, low‐intensity strobe illumination (100 flashes/min), forced swimming (5 min at 10℃), white noise (110 dB), tail pinch (1 cm from tail root, 6 min), 45℃ cage tilt, and restraint (1–2 h). Stressors need to be used continuously and randomly. Non‐stressed rats received free food and water, but were required to fast for 14 h before sucrose preference test. After 4 weeks of stress, the sucrose preference test (SPT) (on day 25), open field test (OFT) (on day 28), and novelty‐suppressed feeding (NSF) test (on day 29) were carried out. […]

mice [2] = assay: Learned helplessness paradigm in mice; type: in vivo, ICR mice; settings: sub‐chronic (4 days), 10 mg/kg ig., after inescapable shock training
Description: For 4 consecutive days, mice were putted into the shuttle box device (40 × 10 × 13 cm), the device was splited into two compartments, and mice could free access. In the IS group, each mouse received 360 inescapable shocks (current intensity 0.30 mA, duration 2 s, 3‐13 s variable interval, about 1 h) over four consecutive training days. Animals in the NIS group underwent the same handling without receiving the foot shocks. 10 trials were conducted on mice to screen helpless, each of which includes conditioned stimulation period (3‐s lamp on), non‐conditioned stimulation period (3‐s lamp +shock), and interval period (without any stimulus, 25 s). […] The EF values were balanced for each group in the experiment. Using Graphic State software (Coulbourn Instruments Inc.,) recorded the number of escape failures and the latency to escape.

[3] = set-up: method as in PMID 31657152; settings: single dose; cited from earlier work

Question: For `COc1ccc2cccc(CCNC(C)=O)c2c1` [Agomelatine, reference compound], which “immobility time in FST” value (rats) is on record?
Answer: Its value is “significantly decreased the immobility time”.

Question: And the Ki (5‐HT2C receptor)?
Answer: The Ki was 0.64 ± 0.25 nM.

Question: What about the Emax (MT1 receptor) of the same molecule?
Answer: Its Emax is 94 ± 7.34%.

Question: What about the “immobility time in TST” value (mice [1]) of the same molecule?
Answer: Its value is “had no effect on immobility time”.

Question: What about the Emax (MT2 receptor) of the same molecule?
Answer: The Emax was 101 ± 4.56%.

Question: What about the “feeding latency in NSF test” value (CUS rats) of the same molecule?
Answer: Its value is “not effective”.

Question: For `CNCCC(Oc1ccc(C(F)(F)F)cc1)c1ccccc1` (stereo not drawn) [Fluoxetine, reference compound], which “deficit of avoidance behavior (escape latency and number of escape failures)” value (mice [2]) is on record?
Answer: The value was “significantly reversed the deficit of avoidance behavior”.

Question: With `CNC1(c2ccccc2Cl)CCCCC1=O` (stereo not drawn) [ketamine] as the molecule, how does the “duration of rapid antidepressant response” value [3] read?
Answer: Its value is “at least three”.

Question: What about the “mean onset time of rapid antidepressant response” value [3] of the same molecule?
Answer: Its value is “four”.

— PMC8111499, “GW117: A novel serotonin (5‐HT2C) receptor antagonist and melatonin (MT1/MT2) receptor agonist with potential antidepressant‐like activity in rodents” (CNS Neuroscience & Therapeutics, 2021)
